Laboratory results taken from US6869788B2, “DNA encoding novel D-aminoacylase and process for producing D-amino acid by using the same” (Mitsui Chemicals, Inc., priority 2001, dated 2005).

test system: D-aminoacylase derived from Methylobacterium mesophilicum MT 10894 (FERM BP-7856); test: Substrate specificity of E. coli transformed by the DNA containing the D-aminoacylase gene to N-acetyl-DL-amino acids; type: biochemical; conditions: substrate 5 g/L, 40° C., 16 hours; activity with N-acetyl-DL-tryptophan as substrate = 100
Protocol: Reactivity and an optical purity were evaluated by analyzing a D-amino acid produced in a reaction and a remaining N-acylamino acid by high performance liquid chromatography (column: CROWNPAK CR(−); Daicel Chemical Industries, Ltd.); column temperature: 40° C.; mobile phase: HClO4 aq. pH 1.5 and 0 to 15% methanol (v/v); flow rate 0.8 mL/min, detection: 210 nm).
E. coli transformed by the plasmid shown in FIG. 1 in Example 7 was subject to shaking culture in an LB medium containing ampicillin (50 μg/mL) at 37° C. overnight. After culturing, the bacterial cells were harvested by centrifugation and washed with a 0.1 M phosphate buffer (pH 7.8). The bacterial cells were suspended in a 0.1 M phosphate buffer (pH 7.8).
Substrate specificity of E. coli transformed by the plasmid shown in FIG. 1 in Example 7 was compared for N-acetyl-DL-amino acids. In this example, the reaction was conducted at a substrate N-acetyl-DL-amino acid concentration of 5 g/L at 40° C. for 16 hours. Relative activities to a variety of N-acetyl-DL-amino acids together with optical purities and reaction yields were determined, assuming that D-aminoacylase activity was 100 when N-acetyl-DL-tryptophan was a substrate.

Molecule | Relative activity (%)
CC(=O)NC(Cc1ccc(Cl)cc1)C(=O)O (racemic) [N-acetyl-DL-4-chlorophenylalanine] | 89
CC(=O)NC(Cc1ccc(F)cc1)C(=O)O (racemic) [N-acetyl-DL-4-fluorophenylalanine] | 99
CC(=O)NC(Cc1c[nH]c2ccc(O)cc12)C(=O)O (racemic) [N-acetyl-DL-5-hydroxytryptophan] | 80
CC(=O)NC(CCc1ccccc1)C(=O)O (racemic) [N-acetyl-DL-homophenylalanine] | 45
CC(=O)NC(COCc1ccccc1)C(=O)O (racemic) [N-acetyl-DL-o-benzylserine] | 30
CC(=O)NC(Cc1ccccc1)C(=O)O (racemic) [N-acetyl-DL-phenylalanine] | 104
CC(=O)NC(Cc1c[nH]c2ccccc12)C(=O)O (racemic) [N-acetyl-DL-tryptophan] | 100
CC(=O)NC(Cc1ccc(O)cc1)C(=O)O (racemic) [N-acetyl-DL-tyrosine] | 67

test system: not listed separately; test: Physical properties of the D-aminoacylase (optimal pH, optimal temperature, thermal stability); type: physicochemical; conditions: not given

Molecule | Optimal temperature
D-aminoacylase: the D-aminoacylase according to this invention, whose physical properties are listed; source strain not stated at that place (protein, listed as Methylobacterium mesophilicum) MTDSTRKHDLIIRGGTVIDGRRTPRFRADVAVRDGRLSAIGDLADHRAAQEIDATGRIVAPGFIDSHTHDDQAVLSQPQIPFKVSQGVTTVIAGNCGISAAPLRRDMDLPMPLNLIDVPAEERFTRFADYLDALRARPSSVNVAAMVGHSTLRAVTMPALDREANSEEIARMRALVQEAMDAGAIGVSTGTFYPPAVKATTEEIIEVCRPLTAAGGLYVTHMRDESDQVMTSLEETFRIGRALDVPVVVSHHKVQNTPNFGKSQVTLPFIREAMQRQRVCLDCYPYTAGSTMIRADRGMLEGRVLIAESLPHPECAGRDLDDIARDWGVDRVEAARRLQPGSAIYFLMDEGDVQRILAFDDTMIGSDGIPVGSKPHPRLWGTFPRVLGHYSRDVGLFPLETAVWKMTGLTARNFGLHGRGTLEAGQAADIVVFDAGTVRDAADYAEPTRPAEGIDAVIVNGAITWQGGQHTGARQGQVIRRQAAPSH | 60° C.;

same assay, conditions: after heating at 40° C. for 20 hours

Molecule | Thermal stability: remaining activity [% remaining activity]
D-aminoacylase: the D-aminoacylase according to this invention, whose physical properties are listed; source strain not stated at that place (protein, listed as Methylobacterium mesophilicum) MTDSTRKHDLIIRGGTVIDGRRTPRFRADVAVRDGRLSAIGDLADHRAAQEIDATGRIVAPGFIDSHTHDDQAVLSQPQIPFKVSQGVTTVIAGNCGISAAPLRRDMDLPMPLNLIDVPAEERFTRFADYLDALRARPSSVNVAAMVGHSTLRAVTMPALDREANSEEIARMRALVQEAMDAGAIGVSTGTFYPPAVKATTEEIIEVCRPLTAAGGLYVTHMRDESDQVMTSLEETFRIGRALDVPVVVSHHKVQNTPNFGKSQVTLPFIREAMQRQRVCLDCYPYTAGSTMIRADRGMLEGRVLIAESLPHPECAGRDLDDIARDWGVDRVEAARRLQPGSAIYFLMDEGDVQRILAFDDTMIGSDGIPVGSKPHPRLWGTFPRVLGHYSRDVGLFPLETAVWKMTGLTARNFGLHGRGTLEAGQAADIVVFDAGTVRDAADYAEPTRPAEGIDAVIVNGAITWQGGQHTGARQGQVIRRQAAPSH | 80
